From EP0328089A2, “Reduced size LHRH analogs” (ABBOTT LABORATORIES, priority 1988, dated 1989)
Where a SMILES comes first, the peptide text is derived from it. [ ]: non-standard residue; d: D form. The star is where a group is joined. Propanoyl(3-(1-naphthyl)) = O=C(CCc1cccc2ccccc12)*; Propanoyl(3-indol-3-yl) = O=C(CCc1c[nH]c2ccccc12)*; d2Nal = N[C@H](Cc1ccc2ccccc2c1)C(=O)O

System: plasma LH levels
Assay: Plasma LH level during and after i.v. infusion (Figures 1 and 2)
Assay type: in vivo
Settings: mature castrate male rats, plot only, compound characterised in words
Source text: Figures 1 and 2 illustrate the effect on plasma LH levels in mature castrate male rats during and after i.v. infusion of compounds 20 and 24, respectively.

SMILES: CCNC(=O)[C@@H]1CCCN1C(=O)[C@H](CCCNC(=N)N)NC(=O)[C@H](CC(C)C)NC(=O)[C@@H](Cc1ccc2ccccc2c1)NC(=O)[C@H](Cc1ccc(O)cc1)NC(=O)[C@H](CO)NC(=O)CCc1cccc2ccccc12 [compound 20] ({Propanoyl(3-(1-naphthyl))}-SY[d2Nal]LRP-NHEt)
- effect on plasma LH levels: LHRH antagonist

SMILES: CCNC(=O)[C@@H]1CCCN1C(=O)[C@H](CCCNC(=N)N)NC(=O)[C@H](CC(C)C)NC(=O)[C@@H](Cc1c[nH]c2ccccc12)NC(=O)[C@H](Cc1ccc(O)cc1)NC(=O)[C@H](CO)NC(=O)CCc1c[nH]c2ccccc12 [compound 24, (4-9)[N-(3-(3-Indole)propionyl)-Ser⁴-D-Trp⁶-Pro⁹-NHEt] LHRH] ({Propanoyl(3-indol-3-yl)}-SY[dW]LRP-NHEt)
- effect on plasma LH levels: LHRH agonist
